The structures appear in SMILES notation.

The target of this assay is T1, hTLR9 (Homo sapiens, UniProt Q9NR96).
T1 sequence (Q9NR96 26-1032): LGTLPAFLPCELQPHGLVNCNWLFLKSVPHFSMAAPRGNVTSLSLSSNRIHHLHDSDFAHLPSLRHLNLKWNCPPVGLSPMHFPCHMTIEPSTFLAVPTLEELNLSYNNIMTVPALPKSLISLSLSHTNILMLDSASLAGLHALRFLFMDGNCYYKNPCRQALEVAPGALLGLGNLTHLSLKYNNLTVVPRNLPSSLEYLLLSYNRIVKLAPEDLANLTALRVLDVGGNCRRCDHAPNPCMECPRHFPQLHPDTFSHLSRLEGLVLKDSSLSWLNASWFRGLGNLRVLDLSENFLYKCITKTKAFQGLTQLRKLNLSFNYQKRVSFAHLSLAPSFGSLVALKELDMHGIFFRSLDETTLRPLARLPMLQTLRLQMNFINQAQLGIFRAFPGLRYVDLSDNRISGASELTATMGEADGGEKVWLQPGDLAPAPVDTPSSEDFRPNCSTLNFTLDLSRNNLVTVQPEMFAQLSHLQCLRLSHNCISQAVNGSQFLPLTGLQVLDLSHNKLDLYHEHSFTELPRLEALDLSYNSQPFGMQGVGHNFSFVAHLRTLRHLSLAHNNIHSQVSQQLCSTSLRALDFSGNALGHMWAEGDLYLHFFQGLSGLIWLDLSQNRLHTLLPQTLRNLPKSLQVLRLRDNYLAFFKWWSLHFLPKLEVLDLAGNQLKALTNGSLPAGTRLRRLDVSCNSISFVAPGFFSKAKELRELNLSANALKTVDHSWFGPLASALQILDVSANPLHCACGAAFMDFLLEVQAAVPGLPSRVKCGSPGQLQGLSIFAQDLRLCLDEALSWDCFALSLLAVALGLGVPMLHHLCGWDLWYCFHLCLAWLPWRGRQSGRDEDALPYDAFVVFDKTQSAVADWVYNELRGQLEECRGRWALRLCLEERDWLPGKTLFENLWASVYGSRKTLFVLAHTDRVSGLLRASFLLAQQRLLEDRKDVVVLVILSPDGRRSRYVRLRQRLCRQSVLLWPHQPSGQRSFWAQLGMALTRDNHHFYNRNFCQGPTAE
The assay can be described thus: HEK293-Blue-hTLR-9 cells assay (SEAP reporter, ODN2006 stimulation). The arrangement: host or cells: HEK293 (HEK-Blue hTLR9). The settings on record: HEK293-Blue-hTLR9 cells, ODN2006, 20 hrs; read-out: HEK/hTLR9 IC50. In kind it is cell-based. A digest of the protocol:
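HEK293-Blue-hTLR9 cells with NF-κB/AP-1-driven SEAP reporter treated with serially diluted compound (1% DMSO final) plus ODN2006 for 20 h at 37 °C. Supernatant SEAP measured with QUANTI-Blue, 2 h at 37 °C, absorbance 620–655 nm; antagonism seen as reduced reporter signal.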
`[2H]c1ccc2c(N3C[C@H](CN4CCN(c5ccc(N6CC7(CN(C)C7)C6)nc5)CC4)O[C@H](C)C3)ccc(C#N)c2n1` [Example 161, 2-deuterio-5-[(2R,6S)-2-methyl-6-[[4-[6-(6-methyl-2,6-diazaspiro[3.3]heptan-2-yl)-3-pyridyl]piperazin-1-yl]methyl]morpholin-4-yl]quinoline-8-carbonitrile]: the IC50 amounted to 59 nM.

Take `Cc1cc(N2C[C@@H](N)[C@](C)(O)C2)nc(N2CCN(C[C@H]3CN(c4ccc(C#N)c5nccnc45)C[C@@H](C)O3)CC2)n1` [Example 125, 8-[(2S,6R)-2-[[4-[4-[(3R,4R)-4-amino-3-hydroxy-3-methyl-pyrrolidin-1-yl]-6-methyl-pyrimidin-2-yl]piperazin-1-yl]methyl]-6-methyl-morpholin-4-yl]quinoxaline-5-carbonitrile]: the IC50 came out at 83 nM.

In the case of `[2H]c1ccc2c(N3C[C@H](CN4CCN(c5ccc(N6C[C@@H]7C[C@H]6CN7)nc5)CC4)O[C@H](C)C3)ccc(C#N)c2n1` [Example 151, 2-deuterio-5-[(2S,6R)-2-[[4-[6-[(1S,4S)-2,5-diazabicyclo[2.2.1]heptan-2-yl]-3-pyridyl]piperazin-1-yl]methyl]-6-methyl-morpholin-4-yl]quinoline-8-carbonitrile], the IC50 is 96 nM.

Consider `Cc1cc(N2CC(N)C2)nc(N2CCN(C[C@H]3CN(c4ccc(C#N)c5nccnc45)C[C@@H](C)O3)CC2)n1` [Example 123, 8-[(2S,6R)-2-[[4-[4-(3-aminoazetidin-1-yl)-6-methyl-pyrimidin-2-yl]piperazin-1-yl]methyl]-6-methyl-morpholin-4-yl]quinoxaline-5-carbonitrile], for which the IC50 came out at 31 nM.

Take `Cc1ccc(N2C[C@H](CN3CCN(c4ccnc(N5CCNCC5)n4)CC3)O[C@H](C)C2)c2nccnc12` [Example 117, (2R,6S)-2-methyl-4-(8-methylquinoxalin-5-yl)-6-[[4-(2-piperazin-1-ylpyrimidin-4-yl)piperazin-1-yl]methyl]morpholine]: the IC50 was determined as 109 nM.

For `CO[C@H]1CN(c2cc(C)nc(N3CCN(C[C@H]4CN(c5ccc(C#N)c6nccnc56)C[C@@H](C)O4)CC3)n2)C[C@H]1N` [Example 122, 8-[(2S,6R)-2-[[4-[4-[(3R,4S)-3-amino-4-methoxy-pyrrolidin-1-yl]-6-methyl-pyrimidin-2-yl]piperazin-1-yl]methyl]-6-methyl-morpholin-4-yl]quinoxaline-5-carbonitrile], the IC50 was determined as 31 nM.

With `C[C@@H]1CN(c2ccc(C#N)c3ncccc23)C[C@H](CN2CCN(c3ccnc(N4C[C@H]5NCCO[C@@H]5C4)n3)CC2)O1` [Example 103, 5-[(2S,6R)-2-[[4-[2-[(4aR,7aR)-3,4,4a,5,7,7a-hexahydro-2H-pyrrolo[3,4-b][1,4]oxazin-6-yl]pyrimidin-4-yl]piperazin-1-yl]methyl]-6-methyl-morpholin-4-yl]quinoline-8-carbonitrile], the IC50 was found to be 100 nM.

With `Cc1ccc(N2C[C@H](CN3CCN(c4ccnc(N5CCN[C@@H](C)C5)n4)CC3)O[C@H](C)C2)c2nccnc12` [Example 127, (2R,6S)-2-methyl-6-[[4-[2-[(3S)-3-methylpiperazin-1-yl]pyrimidin-4-yl]piperazin-1-yl]methyl]-4-(8-methylquinoxalin-5-yl)morpholine], the IC50 was 149 nM.

Take `C[C@@H]1CN(c2ccc(C#N)n3ncc(F)c23)C[C@H](CN2CC(c3ccc(N4CC(C)(N)C4)cc3)C2)O1` [Example 160, 4-[(2S,6R)-2-[[3-[4-(3-amino-3-methyl-azetidin-1-yl)phenyl]azetidin-1-yl]methyl]-6-methyl-morpholin-4-yl]-3-fluoro-pyrazolo[1,5-a]pyridine-7-carbonitrile]: the IC50 amounted to 163 nM.

In the case of `Cc1ccc(N2C[C@H](CN3CCN(c4ccnc(N5CC6(CNCCO6)C5)n4)CC3)O[C@H](C)C2)c2nccnc12` [Example 126, 2-[4-[4-[[(2S,6R)-6-methyl-4-(8-methylquinoxalin-5-yl)morpholin-2-yl]methyl]piperazin-1-yl]pyrimidin-2-yl]-5-oxa-2,8-diazaspiro[3.5]nonane], the IC50 was determined as 146 nM.

Consider `[2H]c1ccc2c(N3C[C@H](CN4CCN(c5ccc(N6C[C@H]7C[C@@H]6CN7)nc5)CC4)O[C@H](C)C3)ccc(C#N)c2n1` [Example 153, 2-deuterio-5-[(2S,6R)-2-[[4-[6-[(1R,4R)-2,5-diazabicyclo[2.2.1]heptan-2-yl]-3-pyridyl]piperazin-1-yl]methyl]-6-methyl-morpholin-4-yl]quinoline-8-carbonitrile], for which the IC50 was 113 nM.

`C[C@@H]1CN(c2ccc(C#N)c3nccnc23)C[C@H](CN2CCN(c3ccnc(N4C[C@H](N)[C@@H](F)C4)n3)CC2)O1` [Example 107, 8-[(2S,6R)-2-[[4-[2-[(3S,4S)-3-amino-4-fluoro-pyrrolidin-1-yl]pyrimidin-4-yl]piperazin-1-yl]methyl]-6-methyl-morpholin-4-yl]quinoxaline-5-carbonitrile]: the IC50 turned out to be 80 nM.

`[2H]c1ccc2c(N3C[C@H](CN4CCN(c5ncc(N6CC(C)(N)C6)cc5C)CC4)O[C@H](C)C3)ccc(C#N)c2n1` [Example 139, 5-[(2S,6R)-2-[[4-[5-(3-amino-3-methyl-azetidin-1-yl)-3-methyl-2-pyridyl]piperazin-1-yl]methyl]-6-methyl-morpholin-4-yl]-2-deuterio-quinoline-8-carbonitrile]: the IC50 was found to be 78 nM.

Consider `C[C@@H]1CN(c2ccc(C#N)c3ncccc23)C[C@H](CN2CCN(c3ccnc(N4C[C@H](N)[C@@H](F)C4)n3)CC2)O1` [Example 110, 5-[(2S,6R)-2-[[4-[2-[(3S,4S)-3-amino-4-fluoro-pyrrolidin-1-yl]pyrimidin-4-yl]piperazin-1-yl]methyl]-6-methyl-morpholin-4-yl]quinoline-8-carbonitrile], for which the IC50 worked out at 68 nM.

For `CO[C@H]1CN(c2nc(C)cc(N3CCN(C[C@H]4CN(c5ccc(C#N)c6nccnc56)C[C@@H](C)O4)CC3)n2)C[C@@H]1N` [Example 106, 8-[(2S,6R)-2-[[4-[2-[(3S,4S)-3-amino-4-methoxy-pyrrolidin-1-yl]-6-methyl-pyrimidin-4-yl]piperazin-1-yl]methyl]-6-methyl-morpholin-4-yl]quinoxaline-5-carbonitrile], the IC50 turned out to be 46 nM.

As to `[2H]c1ccc2c(N3C[C@H](CN4CCN(c5nc(C)cc(N6C[C@@H](N)[C@H](OC)C6)n5)CC4)O[C@H](C)C3)ccc(C#N)c2n1` [Example 144, 5-[(2S,6R)-2-[[4-[4-[(3R,4R)-3-amino-4-methoxy-pyrrolidin-1-yl]-6-methyl-pyrimidin-2-yl]piperazin-1-yl]methyl]-6-methyl-morpholin-4-yl]-2-deuterio-quinoline-8-carbonitrile], the IC50 is 31 nM.

For the compound `[2H]c1nc2c(C#N)ccc(N3C[C@H](CN4CCN(c5nc(C)cc(N6CC(N)C6)n5)CC4)O[C@H](C)C3)c2nc1[2H]` [Example 124, 8-[(2S,6R)-2-[[4-[4-(3-aminoazetidin-1-yl)-6-methyl-pyrimidin-2-yl]piperazin-1-yl]methyl]-6-methyl-morpholin-4-yl]-2,3-dideuterio-quinoxaline-5-carbonitrile], the IC50 was 31 nM.

As for `C[C@@H]1CN(c2ccc(C#N)c3ncccc23)C[C@H](CN2CCN(c3ccnc(N4C[C@@H](N)[C@@H](F)C4)n3)CC2)O1` [Example 101, 5-[(2S,6R)-2-[[4-[2-[(3R,4S)-3-amino-4-fluoro-pyrrolidin-1-yl]pyrimidin-4-yl]piperazin-1-yl]methyl]-6-methyl-morpholin-4-yl]quinoline-8-carbonitrile], the IC50 amounted to 31 nM.

Regarding `[2H]c1ccc2c(N3C[C@H](CN4CCN(c5nc(OC)cc(N6CC(C)(N)C6)n5)CC4)O[C@H](C)C3)ccc(C#N)c2n1` [Example 131, 5-[(2S,6R)-2-[[4-[4-(3-amino-3-methyl-azetidin-1-yl)-6-methoxy-pyrimidin-2-yl]piperazin-1-yl]methyl]-6-methyl-morpholin-4-yl]-2-deuterio-quinoline-8-carbonitrile], the IC50 was found to be 113 nM.

Turning to `C[C@@H]1CN(c2ccc(C#N)c3ncccc23)C[C@H](CN2CCC(c3cccc(N4CCNCC4)c3)C2)O1` (stereo partly drawn) [Example 1, 5-[(2R,6S)-2-methyl-6-[[3-(3-piperazin-1-ylphenyl)pyrrolidin-1-yl]methyl]morpholin-4-yl]quinoline-8-carbonitrile], the IC50 was 136 nM.

Source of the values: patent publication US20210395239A1 (Hoffmann-La Roche Inc., priority 2018, published 2021).
